According to a melting point compilation (Tetko et al.; mined from patent text by program, amines drawn as free bases though some values may be those of a salt):

Compound | melting point [°C]
CCCC1CCC(O)(c2ccc(-c3ccccc3)c(F)c2)CC1 (configuration not stated) | 45 to 72
O=C(c1ccc(Cl)cc1)c1cnc2ccc(Cl)cc2c1Cl | 170
COc1cc(C(C)=O)c(O)cc1OCCCCl | 99 to 101
Clc1ccccc1-c1n[nH]c(-c2ccccc2Cl)n1 | 159 to 160
COc1ccc([C@@H]2Sc3cc(Oc4ccccc4)ccc3NC(=O)[C@@H]2O)cc1 | 181 to 183
Cc1ccc(C2=NNC(=O)CC2)cc1OCC1CO1 (configuration not stated) | 128 to 132
CC(C)(C)NC(=O)Oc1ccc(-c2nn(C3CCCC3)c3c(F)cccc23)cc1 | 157
COc1cc2c(cc1OC)CCCC(C(=O)N1CCN(Cc3cc(OC)c(OC)c(OC)c3)CC1CCCO)=C2 (configuration not stated) | 144 to 145
Cc1c(C(=O)N[C@H](C)[C@](O)(Cn2cncn2)c2ccc(F)cc2F)cnn1-c1ccc(F)cc1F | 208 to 209
CCC1(C)CC(NC(=O)C(=O)NC2CC(C)(CC)N(C(C)=O)C(C)(CC)C2C)C(C)C(C)(CC)N1C(C)=O (configuration not stated) | 164
CN(C)S(=O)(=O)Nc1ccc2[nH]cc(CC#N)c2c1 | 147 to 150
Clc1cc(Cl)cc(-c2nc(Cl)c3ccccc3n2)c1 | 274
COc1cc2c(cc1OC)[C@@H]1CCCC[C@@H]1N=C2c1ccc(N(S(=O)(=O)c2ccc(C)cc2)S(=O)(=O)c2ccc(C)cc2)cc1 (racemic) | 120 to 130
COc1ccc(/C=C/C(=O)C2C(=O)CC(c3ccc(OC)cc3)C([N+](=O)[O-])C2c2ccc(OC)c(OC)c2)cc1 (configuration not stated) | 126 to 128
COc1cccc(CC(c2ccccc2)N(CCO)CCO)c1 (configuration not stated) | 67 to 69
Nc1nc2c(c(Nc3ccccc3)n1)-c1ccccc1C2 | 215 to 217
C[C@H]1C(=O)Nc2ccc(Cl)cc2N1C(=O)Oc1ccc(Cl)cc1 | 185 to 188
COc1cc(-c2ccc(O)c(C3(C)CCCCC3)c2)cc(CC2SC(N3CCCC3)=NC2=O)c1OC (configuration not stated) | 227 to 230
COc1cc(CN[C@H]2CC[C@H](Nc3ccnc4cc(Cl)ccc34)CC2)cc(OC)c1 | 150
c1csc(-c2cn([C@H]3CN4CCC3CC4)nn2)c1 | 137
COC(=O)c1nccn1C(c1ccccc1)(c1ccccc1)c1ccccc1 | 186 to 188
CC(C)(C)OC(=O)NCCC[C@H](NC(=O)OC(C)(C)C)C(=O)OC(C)(C)C | 80 to 82
C[C@H](O)C(=O)Nc1c(C(=O)c2cc(CO)co2)[nH]c2cc(Cl)ccc12 | 213 to 214
C=CCOC(=O)C(C#N)=C(SC)SC | 36 to 37.5
COC(=O)N1C2CCC1CC(=O)C2 | 60 to 61

Compound | melting point [°C]
CCOC(=O)c1cccc(-c2ccc3c(c2)C(O)CCC3)c1 (configuration not stated) | 88 to 100
CC(C)(C)c1cc(C(C(=O)O)c2ccc(O)c(C(C)(C)C)c2)ccc1O | 173
COc1ccc2c(c1)C(=O)C(=O)C1=C2OC2(CCN(CC(O)Cc3ccccc3)CC2)CS1 (configuration not stated) | 146 to 147
CC(C)(O)C1Cc2cc3ccc(=O)oc3cc2O1 (configuration not stated) | 186 to 187
CCOC(=O)C1=Cc2c(F)cccc2OC1C(F)(F)F (configuration not stated) | 45.5 to 47
CC(=O)OC(C)c1nccc2[nH]c(=O)ccc12 (configuration not stated) | 185 to 187
O=C(NCCCCCOc1ccc(-n2ccnc2)cc1)c1ccc(Br)cc1 | 150 to 151
CC(=O)N1CCc2sc(/C=C3/C(=O)N4C(C(=O)O)=CS[C@H]34)cc2C1 | 362
C#CC1CCN(C(=O)c2ccccc2)CC1 | 101 to 103
COc1ccc(C(=O)Nc2ccc(F)cc2)cc1NC(=S)Nc1cccc(C(=O)O)c1 | 218 to 220
CCC(CC)Oc1cc(C)nc(Nc2c(C)cc(C)cc2C)c1C | 132 to 133
C#CCN(Cc1cc2c(=O)n(C)c(CN3CCN(CC)CC3)nc2cc1Cl)c1ccc(C(=O)OC(C)(C)C)cc1 | 145 to 146
O=S(=O)(On1nnc2ccccc21)c1ccc(Cl)cc1 | 94 to 95
Cc1ccc(S(=O)(=O)n2ccc3cc(-c4ccccc4)cnc32)cc1 | 151 to 152
O=C(O)c1cccc(Cl)c1C(F)(F)F | 110
CCN1c2ncccc2C(=O)N(C)c2ccc(-c3c[nH]c(C(C)=O)c3)nc21 | 219 to 220
NS(=O)(=O)c1ccc(-c2c(F)c(F)c(F)c(F)c2-c2ccc(F)cc2)cc1 | 202 to 203
COc1cc(F)ccc1-c1c(/C=C/C(O)CC(=O)O)c2ccccc2c(=O)n1C(C)C (configuration not stated) | 207 to 209
CN1CCN(C(=O)OC2c3cc(Cl)ccc3C(=O)N2c2ccc3ccc(Cl)nc3n2)CC1 (configuration not stated) | 280
CSc1ccc(C(=S)N2CCCC2)cc1 | 116 to 118
COc1cc2ccoc2cc1N1CCN(CC2Cc3ccccc3C2)CC1 | 188 to 192
CCSc1cnc(Oc2ccc(Cl)c(Cl)c2)c(C#N)c1 | 114 to 115
CN1C(=O)C(NC(=S)Nc2ccccc2)N=C(c2ccccc2)c2ccccc21 (configuration not stated) | 209 to 211
COC(=O)CCCCC(=O)Nc1ccc(C(=O)NN=C2C(=O)Nc3ccc(I)cc32)cc1 | 277
Cc1ccccc1Nc1nc(Cl)nc2c(C)cccc12 | 125 to 126

Compound | melting point [°C]
CCC(O)(c1ccccc1)c1cc(C)ccc1C (configuration not stated) | 38 to 39
COc1ccnc(CSc2nc3cc4c(cc3[nH]2)C(C)(C)C(=O)C4(C)C)c1C | 218 to 220
CCCCCCCCCCOc1ccccc1C(N)=O | 58 to 59
CC(C)c1cccc(C(C)C)c1NC(=O)N(Cc1ccccc1)CC1(c2ccccc2)CCCC1 | 124 to 127
COC(=O)CCc1cc2nc(Cl)ccc2n1S(=O)(=O)c1cccc(OC(F)(F)F)c1 | 102
CC(=NOCCO)c1ccc2ccccc2c1 | 94 to 96
CCCCCCCCCCCCCCc1ccc(N(CC(=O)O)CC(=O)O)cc1 | 160 to 165
N#Cc1ccc(CCc2n[nH]c3c2c(=O)n(-c2ccccc2)c2ncccc32)cc1 | 267 to 269
COC(=O)c1ccc2c(c1)S(=O)c1cc3c(cc1CC2)CCC3 (configuration not stated) | 150 to 154
CC(C)C1NC(=O)C(CSSCC2NC(=O)C(C(C)C)NC2=O)NC1=O (configuration not stated) | 270
Brc1ccc(Br)c2nonc12 | 88 to 92
CCc1cc(C#N)ccc1Nc1c(N[C@H](C)C(C)(C)C)c(=O)c1=O | 235 to 237
CS(=O)(=O)N[C@@H]1CCCC[C@H]1Nc1nc(Nc2cc(F)cc3c2OCCNC3=O)ncc1Cl | 177 to 181
O=C(O)CCCc1cc2nc(Cl)ccc2n1S(=O)(=O)c1ccc(C(F)(F)F)cc1 | 185
Cc1nnc(-c2ccc3occ(-c4ccccc4C(F)(F)F)c3c2)o1 | 159 to 160
COCCC(=O)OC[C@@H](O)[C@@H]1CC(c2ccc(-c3ccc(N4C[C@H](Cn5ccnn5)OC4=O)cc3F)cn2)=NO1 | 130
O=C1CCCc2c1[nH]c1ccc(Cl)cc21 | 226
COCN1C(C)=C(C(=O)OCc2ccccc2)C(c2ccccc2C(F)(F)F)C(C(=O)OCc2ccccc2)=C1C | 94 to 95
CN(C)C(=O)N1CCC(Nc2ncc3ncnc(Nc4ccc(F)c(Cl)c4)c3n2)CC1 | 187 to 188
Cc1cccc2c3c(n(Cc4ccccc4)c12)CCCC3=O | 165 to 166
O=C1C=CC=C2C=CC=C12 | 70 to 71
O=C(NO)C(CN1C(=O)CNC1=O)CS(=O)(=O)c1ccc(-c2ccc(Cl)cc2)cc1 (configuration not stated) | 150 to 156
O=c1cc(C(F)(F)F)[nH]c(=O)n1-c1cc([N+](=O)[O-])c(Cl)cc1F | 204
Cc1nn(C2CCCC2O)c(N)c1C#N (configuration not stated) | 157 to 159
CN1CCC(c2c[nH]c3ccc(SCc4ccccc4)cc23)CC1 | 138 to 141

Compound | melting point [°C]
CCCCCCCCCCCCCCCCOCC(CO)OCOC(C)=O (configuration not stated) | 44
Nc1cc(N2C(=O)CCc3ccccc32)ccn1 | 204 to 205
Cc1cc(-c2cc(C(F)F)n3ncc(C(=O)Nc4cccc(S(C)(=O)=O)c4)c3n2)ccc1Cl | 270
CC(C)(C)C(NC(=O)c1ccc(Cl)cc1)Nc1c(Nc2cccnc2Cl)c(=O)c1=O (configuration not stated) | 259 to 261
NCc1ccc2c(c1)nc(CN1C(=O)N(C3CC3)Cc3ccccc31)n2CCCC(F)(F)F | 154
O=C1c2cccc3c4c(cc(c23)C(=O)N1O)OCO4 | 303 to 304
CCCCn1c(=O)c2nc(-c3ccc(/C=C/C(=O)O)cc3)[nH]c2n(CCCC)c1=O | 350 to 355
C#CC[C@@H](NC(=O)OC(C)(C)C)c1nc2cc(Cl)ccc2c(=O)n1Nc1ccccc1 | 155 to 157
O=C1NC(=O)C(c2ccc(-c3ccccc3)s2)O1 (configuration not stated) | 233 to 235
CC(C)n1ccc(-c2ccc([C@H](C)N3CC[C@](CC(C)(C)O)(c4ccccc4)OC3=O)cc2)cc1=O | 134 to 139
O=C(CCC(=O)N1CCC(c2ccc(Cl)cc2)CC1)c1ccc2c(c1)CNCC2 | 121 to 122
COc1ccc(C(=O)NNC(=O)c2occ(-c3ccccc3)c2-c2ccccc2)cc1NC(=O)OC(C)(C)C | 137 to 141
COc1c(C(=O)O)sc(C(F)(F)F)c1SCc1ccccc1 | 146 to 147
CN(C)CCc1cn(C)c2c(F)ccc(OCc3ccccc3)c12 | 60 to 62
CC(C)(NC(=O)c1nc2ccc(NCCCN3CCC(OC(c4ccccc4)c4ccccc4)CC3)nn2n1)C(=O)O | 247 to 249
O=C(c1ccccc1)N1CCc2[nH]c3cc(-c4ccccc4)ccc3c2CC1 | 213 to 232
Nc1ccc(Nc2ncnc3cc(-c4ccccc4)sc23)cc1 | 210 to 211
COc1ccc(C(=O)N2c3ccccc3C(n3c4ccccc4c4ccccc43)CC2CCCCC(=O)O)cc1OC (configuration not stated) | 226 to 228
COc1ccc2cc(C(=O)NCc3cc([N+](=O)[O-])cc([N+](=O)[O-])c3)c(=O)oc2c1 | 233
N#CCCNC1(CC2CCCCC2)C(=O)Nc2ccc(Cl)cc21 (configuration not stated) | 208
c1ccc2c(c1)C[C@H]1CSC(=Nc3cc[nH]n3)N1C2 | 161
CNc1nc(-c2cccc(NC(=O)c3ccccc3OC)c2)c2cc(OC)c(OC)cc2n1 | 194 to 196
